Laboratory results published in US20020019356A1, “HYPERBARIC OXIGENATION (HBO) AS THE METHOD FOR ENHANCEMENT EFFICIENCY OF ANTI-HIV SUBSTANCES IN INHIBITION THE HUMAN IMMUNODEFICIENCY VIRUS (HIV) REPRODUCTION AND REDUCTION OF THE CYTOTOXIC EFFECT OF THOSE SUBSTANCES AS WELL” (priority 1998, published 2002).

Columns and labels:
HIV-1A216 = assay: Viral antigen content (polyclonal EIA) in supernatant of Supt1 culture infected with AZT-resistant HIV-1A216, with or without HBO; format: cell-based, Human Immunodeficiency Virus; details: Supt1/HIV-1A216
Experimental: 1.) Determination of the total level of viral antigen expression by means of the method of polyclonal immunoenzyme analysis (EIA) [ABBOTT™ ELISA Kit].
The values of 50 per cent effective AZT dose (ED50) were calculated conformably to oxidised and non-oxidised cells subsequently infected by HIV and treated by AZT in various concentrations.
ED50 values were derived according to the linear regression resulting averaged values of the optical density signal V(%) depending on the logarithm of AZT doses (10^−6; 10^−7; . . . 10^−12 M).[8]
Regression lines are determined with the following formula: […]
where <> and <> are regression coefficients, calculated by mean square root method.
(§1) 18 million Supt1 cells in 60 ml of the growth medium RPMI-1640 with 10% fetal calf serum, 2 mM L-glutamine and […] genthamycin were placed in each of 2 plastic flasks (75 cm^3), mark Costar®, USA, one of which was subjected to HBO (Ox+), and the other was used for counterchecks with intact and infected cells without a HBO exposure (Ox−).
(§2) The HBO [6] was carried out in the oxygenous pressure chamber BLKS-303M. The pressure chamber was sealed, blown out with oxygen over 7 min till an oxygen concentration of 98-100% was obtained at the outlet of the pressure chamber, whereupon the oxygen pressure in said pressure chamber was increased up to 1.5 ate. The compression rate was 1,077 ate/min and the time period of isocompression was 40 min. After having finished the HBO process, the oxygen pressure was decreased to atmospheric during 6 min.
(§3) Over 40 min after a finish of the HBO—procedure in the each well of the 24-wells plate (Nuclon®, Denmark) added 45 μL of a cell suspension (3×10^5 cell/mL) and 50 μL of a growth substance with a different concentrations of AZT.
(§4) After an incubation over 2 hours at 37° C. an oxygenated and non-oxygenated samples were infected with HIV-1BRU (non-resistant to AZT) and HIV-1A216 (resistant to AZT),
(§5) After having centrifuged 24-wells plate at 300 g over 10 min, supernatant was taken out the wells by S-tips (besides […] of a cell's sediment), to which was added […] of the virus-containing supernatant of 480 TCID50.
(§6) After an incubation over two hours with the virus-containing inoculum at 37° C., the cells were there-fold washed off from residual virus by centrifugation with 300 g over 10 min in the 30-fold volume of the medium and in every well of 24-wells plate were added […] of the growth medium with corresponding AZT-concentration.
(§7) The mixed samples were cultivated in a thermostat at 37° C., 5% CO2 and 80% moisture content.
The experimental procedure was identically with that described in Example 1, except that there were monitored HIV-1A216 antigen expression by the method of polyclonal EIA.

HIV-1BRU = assay: Viral antigen content (polyclonal EIA) in supernatant of Supt1 culture infected with HIV-1BRU, with or without HBO; format: cell-based, Human Immunodeficiency Virus; set-up: unit not given here; details: Supt1/HIV-1BRU
Experimental: 1.) Determination of the total level of viral antigen expression by means of the method of polyclonal immunoenzyme analysis (EIA) [ABBOTT™ ELISA Kit]. […]
as §1, §2, §3, §4, §5, §6, §7
The experimental procedure was identically with that described in Example 1, except that there were monitored HIV-BRU antigen expression by the method of polyclonal EIA.

Supt1 cells = assay: Viability of Supt1 cells with different AZT concentrations, with or without HBO (MTT-test); format: cell-based, human
Text: 4.) Monitoring the viability by means of direct cell calculation in a Goryaev counting chamber after colouring with the excepting vital stain 0.2% trypan blue. For the direct comparison of the amounts of living cells there is used the so-called MTT-method, which is based on the capability of living cells to reduce the yellow water-soluble tetrazole salt MTT (3-(4,5)-dimethylthiazol-2-ye)-2,5-diphenyl-bromide tetrazole) into insoluble intracellular MTT-formazan crystals, whereas dead cells are not capable to do this.
A concentrated MTT solution of 10 mg/ml is prepared with a phosphate buffer solution at pH 7.4 and brought into a hollow with the cells at a 10-fold dilution rate.
After incubation over 4 hours at 37° C. the supernatant is isolated with help of microdosing tips of a special design (S-tips).
Into the hollow is added […] of DMSO as solvent. The thereupon measurable optical density is within 540 to 590 nm, i.e. in the absorption range of formazan, is direct proportional to the quantity of living cells.
as §1, §2, §3, §6
The mixed samples were cultivated in a thermostat at 37° C., 5% CO2 and 80% moisture content. […]
The monitoring results of viability of oxygenated and not-oxygenated cells Supt1, inoculated HIV-1BRU with different AZT-concentrations, are shown in Table 1.

[1] = AZT 10^−11 M, day 3 after infection, OX+
[2] = AZT 10^−11 M, day 3 after infection, OX−

Cc1cn([C@H]2C[C@H](N=[N+]=[N-])[C@@H](CO)O2)c(=O)[nH]c1=O [AZT, 3-azido-2,3-didezoxythimidim]
Content of viral antigen in supernatant (HIV-1A216; AZT 10^−6 M, day 2 after infection, OX+): 20.5
Content of viral antigen in supernatant (HIV-1A216; AZT 10^−6 M, day 2 after infection, OX−): 21.8
Content of viral antigen in supernatant (HIV-1A216; AZT 10^−6 M, day 3 after infection, OX+): 33.3
Content of viral antigen in supernatant (HIV-1A216; AZT 10^−6 M, day 3 after infection, OX−): 51.1
Content of viral antigen in supernatant (HIV-1A216; AZT 10^−8 M, day 2 after infection, OX+): 29.3
Content of viral antigen in supernatant (HIV-1A216; AZT 10^−8 M, day 2 after infection, OX−): 33.1
Content of viral antigen in supernatant (HIV-1A216; AZT 10^−8 M, day 3 after infection, OX+): 51.8
Content of viral antigen in supernatant (HIV-1A216; AZT 10^−8 M, day 3 after infection, OX−): 70.7
Content of viral antigen in supernatant (HIV-1A216; AZT 10^−11 M, day 2 after infection, OX+): 29.6
Content of viral antigen in supernatant (HIV-1A216; AZT 10^−11 M, day 2 after infection, OX−): 48.2
Content of viral antigen in supernatant (HIV-1A216; [1]): 44.5
Content of viral antigen in supernatant (HIV-1A216; [2]): 92.1
Content of viral antigen in supernatant (HIV-1BRU; AZT 10^−7 M, day 3 after infection, OX+): 8.8
Content of viral antigen in supernatant (HIV-1BRU; AZT 10^−7 M, day 3 after infection, OX−): 8.0
Content of viral antigen in supernatant (HIV-1BRU; AZT 10^−7 M, day 5 after infection, OX+): 9.9
Content of viral antigen in supernatant (HIV-1BRU; AZT 10^−7 M, day 5 after infection, OX−): 50.2
Content of viral antigen in supernatant (HIV-1BRU; AZT 10^−9 M, day 3 after infection, OX+): 7.4
Content of viral antigen in supernatant (HIV-1BRU; AZT 10^−9 M, day 3 after infection, OX−): 14.5
Content of viral antigen in supernatant (HIV-1BRU; AZT 10^−9 M, day 5 after infection, OX+): 21.5
Content of viral antigen in supernatant (HIV-1BRU; AZT 10^−9 M, day 5 after infection, OX−): 82.3
Content of viral antigen in supernatant (HIV-1BRU; [1]): 8.7
Content of viral antigen in supernatant (HIV-1BRU; [2]): 14.4
Content of viral antigen in supernatant (HIV-1BRU; AZT 10^−11 M, day 5 after infection, OX+): 62.0
Content of viral antigen in supernatant (HIV-1BRU; AZT 10^−11 M, day 5 after infection, OX−): 83.4
viability of the cell culture Supt1 (MTT-test) (Supt1 cells; AZT 10^−3 M, day 2 after AZT addition, HBO+): 52.3 per cents
viability of the cell culture Supt1 (MTT-test) (Supt1 cells; AZT 10^−3 M, day 2 after AZT addition, HBO−): 45.3 per cents
viability of the cell culture Supt1 (MTT-test) (Supt1 cells; AZT 10^−3 M, day 3 after AZT addition, HBO+): 55.6 per cents
viability of the cell culture Supt1 (MTT-test) (Supt1 cells; AZT 10^−3 M, day 3 after AZT addition, HBO−): 51.1 per cents
viability of the cell culture Supt1 (MTT-test) (Supt1 cells; AZT 10^−3 M, day 5 after AZT addition, HBO+): 35.0 per cents
viability of the cell culture Supt1 (MTT-test) (Supt1 cells; AZT 10^−3 M, day 5 after AZT addition, HBO−): 25.3 per cents
viability of the cell culture Supt1 (MTT-test) (Supt1 cells; AZT 10^−4 M, day 2 after AZT addition, HBO+): 65.2 per cents
viability of the cell culture Supt1 (MTT-test) (Supt1 cells; AZT 10^−4 M, day 2 after AZT addition, HBO−): 63.1 per cents
viability of the cell culture Supt1 (MTT-test) (Supt1 cells; AZT 10^−4 M, day 3 after AZT addition, HBO+): 73.6 per cents
viability of the cell culture Supt1 (MTT-test) (Supt1 cells; AZT 10^−4 M, day 3 after AZT addition, HBO−): 50.5 per cents
viability of the cell culture Supt1 (MTT-test) (Supt1 cells; AZT 10^−4 M, day 5 after AZT addition, HBO+): 61.1 per cents
viability of the cell culture Supt1 (MTT-test) (Supt1 cells; AZT 10^−4 M, day 5 after AZT addition, HBO−): 55.1 per cents
viability of the cell culture Supt1 (MTT-test) (Supt1 cells; AZT 10^−5 M, day 2 after AZT addition, HBO+): 79.3 per cents
viability of the cell culture Supt1 (MTT-test) (Supt1 cells; AZT 10^−5 M, day 2 after AZT addition, HBO−): 72.3 per cents
viability of the cell culture Supt1 (MTT-test) (Supt1 cells; AZT 10^−5 M, day 3 after AZT addition, HBO+): 85.4 per cents
viability of the cell culture Supt1 (MTT-test) (Supt1 cells; AZT 10^−5 M, day 3 after AZT addition, HBO−): 70.0 per cents
viability of the cell culture Supt1 (MTT-test) (Supt1 cells; AZT 10^−5 M, day 5 after AZT addition, HBO+): 80.5 per cents
viability of the cell culture Supt1 (MTT-test) (Supt1 cells; AZT 10^−5 M, day 5 after AZT addition, HBO−): 71.9 per cents
viability of the cell culture Supt1 (MTT-test) (Supt1 cells; AZT 10^−6 M, day 2 after AZT addition, HBO+): 89.3 per cents
viability of the cell culture Supt1 (MTT-test) (Supt1 cells; AZT 10^−6 M, day 2 after AZT addition, HBO−): 52.7 per cents
viability of the cell culture Supt1 (MTT-test) (Supt1 cells; AZT 10^−6 M, day 3 after AZT addition, HBO+): 96.0 per cents
viability of the cell culture Supt1 (MTT-test) (Supt1 cells; AZT 10^−6 M, day 3 after AZT addition, HBO−): 80.2 per cents
viability of the cell culture Supt1 (MTT-test) (Supt1 cells; AZT 10^−6 M, day 5 after AZT addition, HBO+): 87.8 per cents
viability of the cell culture Supt1 (MTT-test) (Supt1 cells; AZT 10^−6 M, day 5 after AZT addition, HBO−): 73.0 per cents
viability of the cell culture Supt1 (MTT-test) (Supt1 cells; AZT 10^−7 M, day 2 after AZT addition, HBO+): 93.0 per cents
viability of the cell culture Supt1 (MTT-test) (Supt1 cells; AZT 10^−7 M, day 2 after AZT addition, HBO−): 53.8 per cents
viability of the cell culture Supt1 (MTT-test) (Supt1 cells; AZT 10^−7 M, day 3 after AZT addition, HBO+): 95.2 per cents
viability of the cell culture Supt1 (MTT-test) (Supt1 cells; AZT 10^−7 M, day 3 after AZT addition, HBO−): 114.1 per cents
viability of the cell culture Supt1 (MTT-test) (Supt1 cells; AZT 10^−7 M, day 5 after AZT addition, HBO+): 92.0 per cents
viability of the cell culture Supt1 (MTT-test) (Supt1 cells; AZT 10^−7 M, day 5 after AZT addition, HBO−): 79.2 per cents
viability of the cell culture Supt1 (MTT-test) (Supt1 cells; AZT 10^−8 M, day 2 after AZT addition, HBO+): 107.8 per cents
viability of the cell culture Supt1 (MTT-test) (Supt1 cells; AZT 10^−8 M, day 2 after AZT addition, HBO−): 100.6 per cents
viability of the cell culture Supt1 (MTT-test) (Supt1 cells; AZT 10^−8 M, day 3 after AZT addition, HBO+): 100.9 per cents
viability of the cell culture Supt1 (MTT-test) (Supt1 cells; AZT 10^−8 M, day 3 after AZT addition, HBO−): 118.3 per cents
viability of the cell culture Supt1 (MTT-test) (Supt1 cells; AZT 10^−8 M, day 5 after AZT addition, HBO+): 85.6 per cents
viability of the cell culture Supt1 (MTT-test) (Supt1 cells; AZT 10^−8 M, day 5 after AZT addition, HBO−): 85.9 per cents
viability of the cell culture Supt1 (MTT-test) (Supt1 cells; AZT 10^−9 M, day 2 after AZT addition, HBO+): 98.3 per cents
viability of the cell culture Supt1 (MTT-test) (Supt1 cells; AZT 10^−9 M, day 2 after AZT addition, HBO−): 95.2 per cents
viability of the cell culture Supt1 (MTT-test) (Supt1 cells; AZT 10^−9 M, day 3 after AZT addition, HBO+): 102.1 per cents
viability of the cell culture Supt1 (MTT-test) (Supt1 cells; AZT 10^−9 M, day 3 after AZT addition, HBO−): 98.6 per cents
viability of the cell culture Supt1 (MTT-test) (Supt1 cells; AZT 10^−9 M, day 5 after AZT addition, HBO+): 97.3 per cents
viability of the cell culture Supt1 (MTT-test) (Supt1 cells; AZT 10^−9 M, day 5 after AZT addition, HBO−): 80.1 per cents
